Reference: patent US9193721B2, “Fused derivatives as PI3Kδ inhibitors” (Incyte Holdings Corporation, priority 2010, dated 2015)
pIC50: −log10 of the molar value. Structures can show the parent of a compound that is named as a salt.

How the values were obtained:
PI3Kδ (p110δ/p85α) = molecular target: T1, PI3Kδ (p110δ/p85α) (Homo sapiens, UniProt O00329); assay: PI3Kδ scintillation proximity assay (assay A); type: biochemical; details: 20 μM PIP2, 20 μM ATP, 4 nM PI3Kδ, 210 minutes, room temperature
T1 construct: purchased Millipore (Bedford, Mass.)
Method: PI3Kδ Scintillation Proximity Assay
[γ-33P] ATP (10 mCi/mL) was purchased from Perkin-Elmer (Waltham, Mass.). […] PI3Kδ (p110δ/p85α) was purchased from Millipore (Bedford, Mass.). ATP, MgCl2, DTT, EDTA, MOPS and CHAPS were purchased from Sigma-Aldrich (St. Louis, Mo.). Wheat Germ Agglutinin (WGA) YSi SPA Scintillation Beads was purchased from GE healthcare life sciences (Piscataway, N.J.).
The kinase reaction was conducted in polystyrene 384-well matrix white plate from Thermo Fisher Scientific in a final volume of 25 μL. Inhibitors were first diluted serially in DMSO and added to the plate wells before the addition of other reaction components. The final concentration of DMSO in the assay was 0.5%. The PI3K assays were carried out at room temperature in 20 mM MOPS, pH 6.7, 10 mM MgCl2, 5 mM DTT and CHAPS 0.03%. Reactions were initiated by the addition of ATP, the final reaction mixture consisted of 20 μM PIP2, 20 μM ATP, 0.2 μCi [γ-^33P] ATP, 4 nM PI3Kδ. Reactions were incubated for 210 minutes and terminated by the addition of 40 μL SPA beads suspended in quench buffer: 150 mM potassium phosphate pH 8.0, 20% glycerol. 25 mM EDTA, 400 μM ATP. The final concentration of SPA beads is 1.0 mg/mL. After the plate sealing, plates were shaken overnight at room temperature and centrifuged at 1800 rpm for 10 minutes, the radioactivity of the product was determined by scintillation counting on Topcount (Perkin-Elmer). IC50 determination was performed by fitting the curve of percent control activity versus the log of the inhibitor concentration using the GraphPad Prism 3.0 software.

[1] = test system: Pfeiffer cell line (diffuse large B cell lymphoma); assay: Pfeiffer cell proliferation assay; type: cell-based; details: Homo sapiens, [3H]-thymidine incorporation after 3-4 days plus 12 hours
Method: Pfeiffer Cell Proliferation Assay
Pfeiffer cell line (diffuse large B cell lymphoma) was purchased from ATCC (Manassas, Va.) and maintained in the culture medium recommended (RPMI and 10% FBS). To measure the anti-proliferation activity of the compounds, the Pfeiffer cells were plated with the culture medium (2×10^3 cells/well/per 200 μl) into 96-well ultra-low binding plates (Corning, Corning, N.Y.), in the presence or absence of a concentration range of test compounds. After 3-4 days, [^3H]-thymidine (1 μCi/well) (PerkinElmer, Boston, Mass.) in PBS was then added to the cell culture for an additional 12 hours before the incorporated radioactivity was separated by filtration with water through GF/B filters (Packard Bioscience, Meridenj, Conn.) and measured by liquid scintillation counting with a TopCount (Packard Bioscience).

T1 sequence (O00329 whole entry): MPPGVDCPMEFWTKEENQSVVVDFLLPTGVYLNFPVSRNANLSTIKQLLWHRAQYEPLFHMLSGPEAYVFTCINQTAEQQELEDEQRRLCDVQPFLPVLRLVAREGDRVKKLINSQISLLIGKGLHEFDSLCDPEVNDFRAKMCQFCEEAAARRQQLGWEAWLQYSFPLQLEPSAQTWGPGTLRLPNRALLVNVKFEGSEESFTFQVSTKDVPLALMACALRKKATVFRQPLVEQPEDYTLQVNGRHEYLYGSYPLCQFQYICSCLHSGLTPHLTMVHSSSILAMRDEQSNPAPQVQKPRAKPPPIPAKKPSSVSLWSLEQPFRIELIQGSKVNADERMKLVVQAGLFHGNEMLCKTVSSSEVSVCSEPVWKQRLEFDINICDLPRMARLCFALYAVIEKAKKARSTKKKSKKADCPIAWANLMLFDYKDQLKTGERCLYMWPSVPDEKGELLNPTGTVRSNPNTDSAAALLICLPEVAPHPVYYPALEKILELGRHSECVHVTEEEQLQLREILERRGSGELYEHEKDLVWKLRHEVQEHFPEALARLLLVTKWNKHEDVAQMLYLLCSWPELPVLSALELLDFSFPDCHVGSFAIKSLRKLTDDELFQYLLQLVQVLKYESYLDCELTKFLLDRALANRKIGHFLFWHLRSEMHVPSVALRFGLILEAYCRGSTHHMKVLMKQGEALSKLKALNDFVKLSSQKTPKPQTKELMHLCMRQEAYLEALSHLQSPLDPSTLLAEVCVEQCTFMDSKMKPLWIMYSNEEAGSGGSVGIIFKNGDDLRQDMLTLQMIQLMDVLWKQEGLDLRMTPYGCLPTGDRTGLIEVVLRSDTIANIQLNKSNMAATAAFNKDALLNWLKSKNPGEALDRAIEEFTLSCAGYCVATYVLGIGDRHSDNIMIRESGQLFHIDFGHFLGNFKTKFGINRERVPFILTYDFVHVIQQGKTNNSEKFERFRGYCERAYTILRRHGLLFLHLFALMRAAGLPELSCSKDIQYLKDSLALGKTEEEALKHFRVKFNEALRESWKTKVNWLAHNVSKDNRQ
T1 sequence (P27986 whole entry partner): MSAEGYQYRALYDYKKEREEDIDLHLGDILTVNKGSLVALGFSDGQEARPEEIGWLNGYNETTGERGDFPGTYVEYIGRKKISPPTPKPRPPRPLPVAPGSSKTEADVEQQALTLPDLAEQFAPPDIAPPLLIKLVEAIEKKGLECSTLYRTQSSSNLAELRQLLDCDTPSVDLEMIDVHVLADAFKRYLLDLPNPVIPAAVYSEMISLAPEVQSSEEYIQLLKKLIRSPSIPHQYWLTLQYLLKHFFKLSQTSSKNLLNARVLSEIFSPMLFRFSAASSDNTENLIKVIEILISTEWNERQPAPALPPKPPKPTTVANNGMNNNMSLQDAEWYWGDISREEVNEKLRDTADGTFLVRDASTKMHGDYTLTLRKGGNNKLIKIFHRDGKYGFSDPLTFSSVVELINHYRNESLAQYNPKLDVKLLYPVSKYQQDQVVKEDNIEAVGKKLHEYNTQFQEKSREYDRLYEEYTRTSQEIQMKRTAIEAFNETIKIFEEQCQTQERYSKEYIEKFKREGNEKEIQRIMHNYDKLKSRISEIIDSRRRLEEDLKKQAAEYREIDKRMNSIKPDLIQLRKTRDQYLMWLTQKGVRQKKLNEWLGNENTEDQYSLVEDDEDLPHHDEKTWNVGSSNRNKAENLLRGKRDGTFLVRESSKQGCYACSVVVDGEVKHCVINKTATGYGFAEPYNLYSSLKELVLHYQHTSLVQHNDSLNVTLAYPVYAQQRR

Row | Structure (SMILES) | pIC50 (PI3Kδ (p110δ/p85α)) | pIC50 [1]
1 | CC(Nc1ncnc2[nH]cnc12)c1cc(Cl)c2cncn2c1-c1cccc(F)c1 (racemic) [Example 1, N-{1-[8-Chloro-5-(3-fluorophenyl)imidazo[1,5-a]pyridin-6-yl]ethyl}-9H-purin-6-amine] | > 7.30 | ≥ 7.00
2 | Cc1ncc2c(Cl)cc(C(C)Nc3ncnc4[nH]cnc34)c(-c3cccc(F)c3)n12 (racemic) [Example 2, N-{1-[8-Chloro-5-(3-fluorophenyl)-3-methylimidazo[1,5-a]pyridin-6-yl]ethyl}-9H-purin-6-amine] | > 7.30 | –
3 | CC(Nc1ncnc2[nH]cnc12)c1cc(Cl)c2cncn2c1-c1cccc(F)c1 (single isomer, unassigned) [1, isomer 1] | > 7.30 | ≥ 7.00
4 | CC(Nc1ncnc2[nH]cnc12)c1cc(Cl)c2cncn2c1-c1cccc(F)c1 (single isomer, unassigned) [1, isomer 2] | 6.70 to 7.30 | –
5 | CC(Nc1ncnc2[nH]cnc12)c1cc(Cl)c2nccn2c1-c1cccc(F)c1 (centres unmarked) [Example 3, N-{1-[8-Chloro-5-(3-fluorophenyl)imidazo[1,2-a]pyridin-6-yl]ethyl}-9H-purin-6-amine] | 6.12 to 6.70 | 5.52 to 6.00
6 | CC(=O)N1CCN(c2c(C(C)Nc3ncnc4[nH]cnc34)cc(Cl)c3cncn23)CC1 (centres unmarked) [Example 4, N-{1-[5-(4-Acetylpiperazin-1-yl)-8-chloroimidazo[1,5-a]pyridin-6-yl]ethyl}-9H-purin-6-amine] | > 7.30 | 6.00 to 6.30
7 | CC(Nc1ncnc2[nH]cnc12)c1cc(Cl)c2cncn2c1N1CCN(S(C)(=O)=O)CC1 (centres unmarked) [Example 5, N-(1-{8-chloro-5-[4-(methylsulfonyl)piperazin-1-yl]imidazo[1,5-a]pyridin-6-yl}ethyl)-9H-purin-6-amine] | 6.70 to 7.30 | < 5.52
8 | CC(Nc1ncnc2[nH]cnc12)c1cc(Cl)c2cncn2c1N1CCN(C(=O)OC(C)(C)C)CC1 (centres unmarked) [Example 6, tert-Butyl 4-{8-chloro-6-[1-(9H-purin-6-ylamino)ethyl]imidazo[1,5-a]pyridin-5-yl}piperazine-1-carboxylate] | 6.70 to 7.30 | < 5.52
9 | CC(Nc1ncnc2[nH]cnc12)c1cc(Cl)c2cncn2c1N1CCN(C(=O)C2CC2)CC1 (centres unmarked) [Example 7, N-(1-{8-Chloro-5-[4-(cyclopropylcarbonyl)piperazin-1-yl]imidazo[1,5-a]pyridin-6-yl}ethyl)-9H-purin-6-amine] | > 7.30 | 6.30 to 7.00
10 | COCC(=O)N1CCN(c2c(C(C)Nc3ncnc4[nH]cnc34)cc(Cl)c3cncn23)CC1 (centres unmarked) [Example 8, N-(1-{8-chloro-5-[4-(methoxyacetyl)piperazin-1-yl]imidazo[1,5-a]pyridin-6-yl}ethyl)-9H-purin-6-amine] | > 7.30 | < 5.52
11 | CC(Nc1ncnc2[nH]cnc12)c1cc(Cl)c2cncn2c1N1CCNCC1 (centres unmarked) [Example 9, N-[1-(8-Chloro-5-piperazin-1-ylimidazo[1,5-a]pyridin-6-yl)ethyl]-9H-purin-6-amine dihydrochloride] | > 7.30 | ≥ 7.00
12 | CC(Nc1ncnc2[nH]cnc12)c1cc(Cl)c2cncn2c1N1CCN(C(=O)CC#N)CC1 (centres unmarked) [Example 10, 3-(4-{8-Chloro-6-[1-(9H-purin-6-ylamino)ethyl]imidazo[1,5-a]pyridin-5-yl}piperazin-1-yl)-3-oxopropanenitrile] | > 7.30 | < 5.52
13 | CC(Nc1ncnc2[nH]cnc12)c1cc(Cl)c2cncn2c1N1CCN(C(=O)c2cnn(C)c2)CC1 (centres unmarked) [Example 11, N-[1-(8-Chloro-5-{4-[(1-methyl-1H-pyrazol-4-yl)carbonyl]piperazin-1-yl}imidazo[1,5-a]pyridin-6-yl)ethyl]-9H-purin-6-amine] | > 7.30 | < 5.52
14 | COCCN1CCN(c2c(C(C)Nc3ncnc4[nH]cnc34)cc(Cl)c3cncn23)CC1 (centres unmarked) [Example 12, N-(1-{8-Chloro-5-[4-(2-methoxyethyl)piperazin-1-yl]imidazo[1,5-a]pyridin-6-yl}ethyl)-9H-purin-6-amine] | 6.12 to 6.70 | 6.30 to 7.00
